The source of these data is patent US12440471B2, “Compositions and methods for the treatment of bronchopulmonary dysplasia (BPD) and BPD-associated pulmonary hypertension” (AyuVis Research, Inc., priority 2021, dated 2025).

Data set [1] relates to hyperoxia-exposed BPD mouse model. Kind of data set: BPD mouse model: western blot of lung homogenates. In kind it is in vivo. The protocol: Western Blot Analysis. Western blot analyses for TLR4 (Cell Signaling Technology, Danvers, MA; 1:1000), Ang2 (1:500; Sigma, St. Louis, MO), TGFβ, NFkB, TNFα, IL-10, IL-1(3, IL-4, Vegf, eNos, Vegf-D, BmpRII, Vinculin (1:500; SantaCruz, Dallas, TX), were performed, as previously described (Leary, Das et al. 2019), by loading 30 μg of lung protein, followed by immunoblotting with the above antibodies and visualizing with Odyssey infrared imaging system (LI-COR Biosciences, Lincoln, NE). Densitometric quantification was done using ImageJ after normalizing with Vinculin, the loading control housekeeping protein.

A short description of data set [2]: Oral PK of nanomilled formulations in adult SD rats. The format is in vivo, rat. The following applies: oral formulation, 100 mg/kg. The protocol:
The test item, the stabilizer (HPC-SSL) and the surfactant (SDS) were accurately weighed and transferred in a 15-mL amber glass jar charged with 6 mL of yttrium-stabilized zirconia beads (0.8 mm). The suspension was brought to final weight with water in order to achieve the desired final concentration. The formulation was mixed using a vortex for at least 1 minute and then homogenized using a roller mill (Unitized Jar Mill, Model 755 RMV from U.S. Stoneware (purchased from Fisher Scientific Canada cat #08-381-1) at 50 rpm for 48 hours.
For the animal study, the suspensions prepared at 50 mg/mL were diluted to 10 mg/mL using a blank vehicle prepared using the same proportions of excipients as those indicated in Table I. By diluting the concentrated suspension of AVR-84 a clear solution was obtained whereas for AVR-48 the solution was a homogeneous cloudy solution.
Animals and dosing: The male SD rats (N=3) were obtained from Charles River. Each animal was weighed before the administration of the test item. […] At the specified time points, t=15′, 30′, 1 h, 2 h, 3 h, 4 h, 6 h, 8 h and 24 h (N=3), blood (100 μL) was collected via the saphenous vein using MINIVETTE® POCT K3-EDTA. The blood samples were centrifuged for 10 min at 965 g and 4° C. within 30 min of collection, to obtain plasma. Plasma samples were kept frozen at −80° C. The plasma samples were thawed on ice and kept on ice during the sample preparation. Thirty μL of plasma samples were mixed with 75 μL of precipitation solution (80% acetonitrile and 20% methanol containing IS) was added. Samples were mixed and centrifuged at 3500 rpm for 10 min at 4° C. Forty μL of the supernatant was transferred to a 96 well plate, and 80 μL of water+0.1% formic acid was added and analyzed using the in house developed HPLC method.

As usually defined, the Cmax is the peak of the concentration-time curve. One may read the Tmax as the time at which the peak concentration occurs. Usually half-life stands for how long it takes for the measured level to halve. For the molecule `CC(=O)N[C@@H]1C(Oc2ccc([N+](=O)[O-])cc2)OC(CO)C(O)C1O` (stereo partly drawn) [AVR-48], the “inflammation in room air animals” value in data set [1] (RA+AVR-48 treated group) is given as “increased inflammation”. Moreover, in data set [1] (lung homogenates, vs BPD), the IL-1β entry was “marked decrease”, the IL-13 entry is on record as “marked decrease”, the TNFα entry is “marked decrease” and the “nuclear factor kappa B (NFkB)” value is reported as “marked decrease”. In addition, in data set [1] (lung, vs BPD), the “Angiopoetin 2 (Ang2)” value was “significantly decreased” and the Vegf-D protein entry is listed as “decreases”. Further, in data set [1] (lung, vs BPD group), the IL-10 entry is given as “increased”, the “Total vascular endothelial growth factor (Vegf)” value was “increased considerably”, the “bone morphometric protein receptor (BmpR)II” value was “significantly decreased” and the “endothelial nitric oxide synthase (eNOS)” value is given as “significantly decreased”. Also, in data set [1] (lungs, vs BPD group), the IL-4 entry is “decrease” and the TGFβ entry is recorded as “decrease”. Besides, the “TLR4 expression in the lungs” value in data set [1] (whole lung homogenates, after treatment) was “increase in the expression of TLR4”. The Cmax in data set [2] (male, SD (Sprague-Dawley), rat, plasma, adult rats n=3 (repeat of figure legend), read-out: Cmax) amounted to 3.64 ± 0.66 µM. The Tmax in data set [2] (male, SD (Sprague-Dawley), rat, plasma, adult rats n=3, read-out: Tmax) turned out to be 42 ± 18 min. The half-life in data set [2] (male, SD (Sprague-Dawley), rat, plasma, adult rats n=3, read-out: half-life (T v2) (converted)) is 36 ± 24 min. Also, the plasma concentration profile entry in data set [2] was “linear decline in drug concentration”.
